Data: ChEMBL document CHEMBL5550148, “Systematic alanine and stapling mutational analysis of antimicrobial peptide Chem-KVL” (Bioorg Med Chem Lett, 2024)
≈ marks a conversion by molar mass, not a printed value. Bridge positions count the residues as written; N and C are the ends. Square brackets hold non-standard residues; d marks the D form. Peptide text beside a SMILES is read from it. S5 = C=CCCC[C@](C)(N)C(=O)O

Tests used:
[1] = system: Staphylococcus aureus; test: Antibacterial activity against Staphylococcus aureus ATCC 25923 assessed as inhibition of bacterial growth; format: functional
[2] = system: Salmonella typhimurium; test: Antibacterial activity against Salmonella typhimurium clinical isolate assessed as inhibition of bacterial growth; format: functional, Salmonella enterica subsp. enterica serovar Typhimurium; settings: Salmonella enterica
[3] = system: Acinetobacter baumannii; test: Antibacterial activity against Acinetobacter baumannii ATCC 17978 assessed as inhibition of bacterial growth; format: functional
[4] = system: Pseudomonas aeruginosa; test: Antibacterial activity against Pseudomonas aeruginosa ATCC 27853 assessed as inhibition of bacterial growth; format: functional
[5] = system: Escherichia coli; test: Antibacterial activity against Escherichia coli ATCC 25922 assessed as inhibition of bacterial growth; format: functional
[6] = Retention time of compound by HPLC analysis; format: physicochemical
[7] = system: Klebsiella pneumoniae; test: Antibacterial activity against Klebsiella pneumoniae ATCC 13883 assessed as inhibition of bacterial growth; format: functional
[8] = molecular target: T1, chymotrypsin (Homo sapiens, UniProt P17538+P40313+Q6GPI1+Q99895); test: Proteolytic stability of compound assessed as chymotrypsin (unknown origin) mediated drug degradation by measuring compound remaining after 4 hrs by HPLC analysis; format: ADME, protein assay; settings: read-out: Stability
[9] = Cytotoxicity against mouse RAW264.7 cells; format: toxicity, cell-based
[10] = molecular target: T1, chymotrypsin; test: Proteolytic stability of compound assessed as chymotrypsin (unknown origin) mediated drug degradation measured within 4 hrs by HPLC analysis; format: ADME, protein assay; settings: read-out: Drug degradation
[11] = system: Pseudomonas aeruginosa; test: Potency index, ratio of Chem-KVL MIC to test compound MIC for antibacterial activity against Pseudomonas aeruginosa ATCC 27853; format: functional
[12] = system: Staphylococcus aureus; test: Potency index, ratio of Chem-KVL MIC to test compound MIC for antibacterial activity against Staphylococcus aureus ATCC 25923; format: functional
[13] = system: Escherichia coli; test: Potency index, ratio of Chem-KVL MIC to test compound MIC for antibacterial activity against Escherichia coli ATCC 25922; format: functional

Molecule	MIC [1] [µg/mL]	MIC [2] [µg/mL]	MIC [3] [µg/mL]	MIC [4] [µg/mL]	MIC [5] [µg/mL]	Time [6] [min]	MIC [7] [µg/mL]	remaining at 4 h [8] [%]	IC50 [9] [µg/mL]	metabolised at 4 h [10] [%]	Ratio [11]	Ratio [12]	Ratio [13]
CC(=O)N[C@@H](CCCCN)C(=O)N[C@H](C(=O)N[C@@H](CC(C)C)C(=O)NCC(=O)N[C@@H](CCCNC(=N)N)C(=O)N[C@@H](CC(C)C)C(=O)N[C@H](C(=O)N[C@@H](CCCCN)C(=O)N[C@H](C(=O)N[C@@]1(C)CCC/C=C\CCC[C@@](C)(C(N)=O)NC(=O)[C@H](CC(C)C)NC(=O)[C@H](CCCNC(=N)N)NC(=O)CNC1=O)C(C)C)C(C)C)C(C)C (Ac-KVLGRLVKV[S5]GRL[S5]-NH2; staple (Z) 10-14)	4 (≈ 2.46 µM)	64 (≈ 39.3 µM)	32 (≈ 19.6 µM)	8 (≈ 4.91 µM)	32 (≈ 19.6 µM)	28.3	64 (≈ 39.3 µM)	–	–	–	–	–	–
CC(=O)N[C@@H](CCCCN)C(=O)N[C@H](C(=O)N[C@@H](CC(C)C)C(=O)NCC(=O)N[C@@H](CCCNC(=N)N)C(=O)N[C@@H](CC(C)C)C(=O)N[C@H](C(=O)N[C@@H](CCCCN)C(=O)N[C@@]1(C)CCC/C=C\CCC[C@@](C)(C(=O)N[C@H](C(N)=O)C(C)C)NC(=O)[C@H](CCCNC(=N)N)NC(=O)CNC(=O)[C@H](CC(C)C)NC1=O)C(C)C)C(C)C (Ac-KVLGRLVK[S5]LGR[S5]V-NH2; staple (Z) 9-13)	8 (≈ 4.91 µM)	64 (≈ 39.3 µM)	32 (≈ 19.6 µM)	4 (≈ 2.46 µM)	32 (≈ 19.6 µM)	27.9	64 (≈ 39.3 µM)	–	–	–	–	–	–
CC(=O)N[C@@H](CCCCN)C(=O)N[C@H](C(=O)N[C@@H](CC(C)C)C(=O)NCC(=O)N[C@@H](CCCNC(=N)N)C(=O)N[C@@H](CC(C)C)C(=O)N[C@@]1(C)CCC/C=C\CCC[C@@](C)(C(=O)N[C@@H](CCCNC(=N)N)C(=O)N[C@@H](CC(C)C)C(=O)N[C@H](C(N)=O)C(C)C)NC(=O)[C@H](CC(C)C)NC(=O)[C@H](C(C)C)NC(=O)[C@H](CCCCN)NC1=O)C(C)C (Ac-KVLGRL[S5]KVL[S5]RLV-NH2; staple (Z) 7-11)	16 (≈ 9.49 µM)	> 64	> 64	32 (≈ 19 µM)	> 64	30.6	> 64	–	–	–	–	–	–
CC(=O)N[C@@H](CCCCN)C(=O)N[C@H](C(=O)N[C@@H](CC(C)C)C(=O)NCC(=O)N[C@@H](CCCNC(=N)N)C(=O)N[C@@]1(C)CCC/C=C\CCC[C@@](C)(C(=O)NCC(=O)N[C@@H](CCCNC(=N)N)C(=O)N[C@@H](CC(C)C)C(=O)N[C@H](C(N)=O)C(C)C)NC(=O)[C@H](C(C)C)NC(=O)[C@H](CCCCN)NC(=O)[C@H](C(C)C)NC1=O)C(C)C (Ac-KVLGR[S5]VKV[S5]GRLV-NH2; staple (Z) 6-10)	2 (≈ 1.24 µM)	64 (≈ 39.6 µM)	16 (≈ 9.91 µM)	4 (≈ 2.48 µM)	32 (≈ 19.8 µM)	26.5	64 (≈ 39.6 µM)	> 70	2.95 (≈ 1.83 µM)	–	–	–	–
CC(=O)N[C@@H](CCCCN)C(=O)N[C@H](C(=O)N[C@@H](CC(C)C)C(=O)NCC(=O)N[C@@]1(C)CCC/C=C\CCC[C@@](C)(C(=O)N[C@@H](CC(C)C)C(=O)NCC(=O)N[C@@H](CCCNC(=N)N)C(=O)N[C@@H](CC(C)C)C(=O)N[C@H](C(=O)O)C(C)C)NC(=O)[C@H](CCCCN)NC(=O)[C@H](C(C)C)NC(=O)[C@H](CC(C)C)NC1=O)C(C)C (Ac-KVLG[S5]LVK[S5]LGRLV-OH; staple (Z) 5-9)	4 (≈ 2.52 µM)	> 64	64 (≈ 40.3 µM)	4 (≈ 2.52 µM)	64 (≈ 40.3 µM)	30.8	> 64	–	–	–	–	–	–
CC(=O)N[C@@H](CCCCN)C(=O)N[C@H](C(=O)N[C@@]1(C)CCC/C=C\CCC[C@@](C)(C(=O)N[C@@H](CCCCN)C(=O)N[C@H](C(=O)N[C@@H](CC(C)C)C(=O)NCC(=O)N[C@@H](CCCNC(=N)N)C(=O)N[C@@H](CC(C)C)C(=O)N[C@H](C(N)=O)C(C)C)C(C)C)NC(=O)[C@H](CC(C)C)NC(=O)[C@H](CCCNC(=N)N)NC(=O)CNC1=O)C(C)C (Ac-KV[S5]GRL[S5]KVLGRLV-NH2; staple (Z) 3-7)	4 (≈ 2.46 µM)	> 64	64 (≈ 39.3 µM)	16 (≈ 9.82 µM)	64 (≈ 39.3 µM)	27.1	> 64	–	–	–	–	–	–
CC(=O)N[C@@H](CCCCN)C(=O)N[C@@]1(C)CCC/C=C\CCC[C@@](C)(C(=O)N[C@H](C(=O)N[C@@H](CCCCN)C(=O)N[C@H](C(=O)N[C@@H](CC(C)C)C(=O)NCC(=O)N[C@@H](CCCNC(=N)N)C(=O)N[C@@H](CC(C)C)C(=O)N[C@H](C(N)=O)C(C)C)C(C)C)C(C)C)NC(=O)[C@H](CCCNC(=N)N)NC(=O)CNC(=O)[C@H](CC(C)C)NC1=O (Ac-K[S5]LGR[S5]VKVLGRLV-NH2; staple (Z) 2-6)	8 (≈ 4.91 µM)	32 (≈ 19.6 µM)	16 (≈ 9.82 µM)	4 (≈ 2.46 µM)	16 (≈ 9.82 µM)	27.3	32 (≈ 19.6 µM)	–	4.11 (≈ 2.52 µM)	100	–	–	–
Ac-AVLGRLVKVLGRLV-NH2	16	> 64	> 64	64	> 64	27.8	> 64	–	–	–	–	–	–
Ac-KALGRLVKVLGRLV-NH2	32	16	16	64	8	24.4	32	–	–	–	–	–	–
Ac-KVAGRLVKVLGRLV-NH2	> 64	64	> 64	> 64	64	22.4	> 64	–	–	–	–	–	–
Ac-KVLARLVKVLGRLV-NH2	4	64	32	32	32	26.8	64	–	–	–	–	–	–
Ac-KVLGALVKVLGRLV-NH2	8	64	32	16	32	28.4	32	–	–	–	–	–	–
Ac-KVLGRAVKVLGRLV-NH2	> 64	64	> 64	> 64	> 64	22.3	> 64	–	–	–	–	–	–
Ac-KVLGRLAKVLGRLV-NH2	32	16	32	64	8	24.5	64	–	–	–	–	–	–
Ac-KVLGRLVAVLGRLV-NH2	16	> 64	> 64	64	64	27.4	64	–	–	–	–	–	–
Ac-KVLGRLVKALGRLV-NH2	> 64	64	> 64	> 64	> 64	25.2	> 64	–	–	–	–	–	–
Ac-KVLGRLVKVAGRLV-NH2	> 64	64	> 64	> 64	> 64	22	> 64	–	–	–	–	–	–
Ac-KVLGRLVKVLARLV-NH2	8	32	16	8	16	27.4	16	–	–	–	2	2	2
Ac-KVLGRLVKVLGALV-NH2	32	> 64	> 64	16	> 64	27	> 64	–	–	–	–	–	–
Ac-KVLGRLVKVLGRAV-NH2	> 64	32	64	> 64	> 64	22.7	> 64	–	–	–	–	–	–
Ac-KVLGRLVKVLGRLA-NH2	64	32	32	> 64	16	24.2	64	–	–	–	–	–	–
Ac-KVLGRLVKVLGRLV-NH2	16	32	16	32	32	25.1	16	–	3.7	100	–	–	–
